In patent publication US20260224582A1, “Heterobicyclic amides as inhibitors of CD38” (Cerevance, Inc., priority 2022, published 2026):

How the values were obtained:
Recombinant human CD38 = biological target: T1, Recombinant human CD38 (Homo sapiens, UniProt P28907); experiment: Human CD38 hydrolase assay (fluorescence-based, ε-NAD substrate); assay type: biochemical; settings: recombinant human CD38 0.8 nM, 4 μM ε-NAD, 30 min preincubation at 25° C.
T1 sequence (P28907 1-300): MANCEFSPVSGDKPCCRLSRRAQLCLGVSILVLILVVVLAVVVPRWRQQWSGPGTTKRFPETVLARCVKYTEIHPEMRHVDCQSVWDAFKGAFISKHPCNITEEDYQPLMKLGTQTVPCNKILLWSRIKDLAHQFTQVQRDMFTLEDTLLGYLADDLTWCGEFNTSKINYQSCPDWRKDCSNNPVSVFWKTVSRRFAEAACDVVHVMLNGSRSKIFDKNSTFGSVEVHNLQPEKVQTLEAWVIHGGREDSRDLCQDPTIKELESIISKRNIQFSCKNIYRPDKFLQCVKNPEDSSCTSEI
Protocol: The ability of test compounds to inhibit human CD38 hydrolase activity was measured in a fluorescence-based assay using non-physiological NAD^+ substrate analogue 1,N^6-etheno NAD^+ (ε-NAD). Recombinant human CD38 (0.8 nM) was preincubated with test compounds in 384-well black microplates for 30 min at 25° C. in PBS (—Ca^2+/Mg^2+) containing 0.005% BSA (pH 7.4). CD38 hydrolase activity was initiated by addition of 4 μM ε-NAD, which yields the fluorescent product 1,N^6-etheno ADP-ribose. Formation of fluorescent product was followed using ClarioStar Plus (BMG) microplate reader by reading fluorescence (excitation λ=300 nm; emission λ=410 nm) at two time points, one immediately after substrate addition (t=0) and one at 10 min (t=10). Data was analysed by subtracting the values detected at t=0 from t=10 to correct for variation in baseline fluorescence. Fluorescence values were converted to percent inhibition using the average of high signal (CD38 and ε-NAD) and low signal (CD38 and ε-NAD in the presence of a tool CD38 inhibitor) control wells. IC50 values were determined from a 10-point, half log concentration response curve with a four-parameter logistic equation.

Recombinant mouse CD38 = biological target: T2, Recombinant mouse CD38 (Mus musculus, UniProt P56528); experiment: Mouse CD38 hydrolase assay (fluorescence-based, ε-NAD substrate); assay type: biochemical; settings: recombinant mouse CD38 0.4 nM, 12 μM ε-NAD, 30 min preincubation at 25° C.
T2 sequence (P56528 1-304): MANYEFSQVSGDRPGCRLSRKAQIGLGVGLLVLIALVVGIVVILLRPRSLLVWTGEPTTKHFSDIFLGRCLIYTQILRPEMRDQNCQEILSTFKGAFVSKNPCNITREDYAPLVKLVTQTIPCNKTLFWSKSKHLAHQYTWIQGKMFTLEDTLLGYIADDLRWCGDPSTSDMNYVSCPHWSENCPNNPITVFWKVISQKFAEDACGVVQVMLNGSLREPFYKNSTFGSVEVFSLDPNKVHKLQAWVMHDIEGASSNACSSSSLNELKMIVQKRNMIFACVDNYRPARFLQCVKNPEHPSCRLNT
Protocol: The ability of test compounds to inhibit mouse CD38 hydrolase activity was measured in a fluorescence-based assay using non-physiological NAD^+ substrate analogue 1,N^6-etheno NAD^+ (&-NAD). Recombinant mouse CD38 (0.4 nM) was preincubated with test compounds in 384-well black microplates for 30 min at 25° C. in PBS (—Ca^2+/Mg^2+) containing 0.005% BSA (pH 7.4). CD38 hydrolase activity was initiated by addition of 12 μM ε-NAD, which yields the fluorescent product 1,N^6-etheno ADP-ribose. Formation of fluorescent product was followed using ClarioStar Plus (BMG) microplate reader by reading fluorescence (excitation λ=300 nm; emission λ=410 nm) at two time points, one immediately after substrate addition (t=0) and one at 6 min (t=6).
Data was analysed by subtracting the values detected at t=0 from t=6 to correct for variation in baseline fluorescence. Fluorescence values were converted to percent inhibition using the average of high signal (CD38 and ε-NAD) and low signal (CD38 and ε-NAD in the presence of a tool CD38 inhibitor) control wells. IC50 values were determined from a 10-point, halflog concentration response curve with a four-parameter logistic equation.

N-((1r,4r)-4-((2,2-difluoroethyl)amino)cyclohexyl)-2-(1H-imidazol-1-yl)pyrido[2,3-d]pyrimidine-4-carboxamide [Example 33]
IC50 (Recombinant human CD38): ≤ 0.04 µM | IC50 (Recombinant mouse CD38): ≤ 0.04 µM

CC(C)(N[C@H]1CC[C@H](NC(=O)c2cn3ncnc3c(-n3ccnc3)n2)CC1)C(F)(F)F [Example 53, 8-(1H-imidazol-1-yl)-N-((1r,4r)-4-((1,1,1-trifluoro-2-methylpropan-2-yl)amino)cyclohexyl)-[1,2,4]triazolo[1,5-a]pyrazine-6-carboxamide]
IC50 (Recombinant human CD38): ≤ 1 µM | IC50 (Recombinant mouse CD38): ≤ 0.04 µM

O=C(N[C@H]1CC[C@H](NCC(F)F)CC1)c1nc(-n2ccnc2)nn2cccc12 [Example 31, N-((1r,4r)-4-((2,2-difluoroethyl)amino)cyclohexyl)-2-(1H-imidazol-1-yl)pyrrolo[2,1-f][1,2,4]triazine-4-carboxamide]
IC50 (Recombinant human CD38): ≤ 0.04 µM | IC50 (Recombinant mouse CD38): ≤ 0.04 µM

O=C(N[C@H]1CC[C@@H](N2CCCC2)CC1)c1nc(-n2ccnc2)nn2cccc12 [Example 44, 2-(1H-imidazol-1-yl)-N-((1s,4s)-4-(pyrrolidin-1-yl)cyclohexyl)pyrrolo[2,1-f][1,2,4]triazine-4-carboxamide]
IC50 (Recombinant human CD38): ≤ 1 µM | IC50 (Recombinant mouse CD38): ≤ 0.04 µM

O=C(N[C@H]1CC[C@H](NCC(F)(F)F)CC1)c1nc(-n2ccnc2)cc2nccn12 [Example 2, 7-(1H-imidazol-1-yl)-N-((1r,4r)-4-((2,2,2-trifluoroethyl)amino)cyclohexyl) imidazo[1,2-c]pyrimidine-5-carboxamide]
IC50 (Recombinant human CD38): ≤ 0.04 µM | IC50 (Recombinant mouse CD38): ≤ 0.04 µM

O=C(NC1CCN(CC(F)(F)F)CC1)c1cn2ncnc2c(-n2ccnc2)n1 [Example 50, 8-(1H-imidazol-1-yl)-N-(1-(2,2,2-trifluoroethyl)piperidin-4-yl)-[1,2,4]triazolo[1,5-a]pyrazine-6-carboxamide]
IC50 (Recombinant human CD38): ≤ 1 µM | IC50 (Recombinant mouse CD38): ≤ 0.1 µM

O=C(N[C@H]1CC[C@H](NCC(F)(F)F)CC1)c1nc(-c2cncs2)cn2cccc12 [Example 5, 3-(thiazol-5-yl)-N-((1r,4r)-4-((2,2,2-trifluoroethyl)amino)cyclohexyl)pyrrolo[1,2-a]pyrazine-1-carboxamide]
IC50 (Recombinant human CD38): ≤ 1 µM | IC50 (Recombinant mouse CD38): ≤ 0.04 µM

O=C(N[C@H]1CC[C@H](NCC(F)(F)F)CC1)c1nc(-n2ccnc2)c2cccn2n1 [Example 16, 4-(1H-imidazol-1-yl)-N-((1r,4r)-4-((2,2,2-trifluoroethyl)amino)cyclohexyl)pyrrolo[2,1-f][1,2,4]triazine-2-carboxamide]
IC50 (Recombinant human CD38): ≤ 1 µM | IC50 (Recombinant mouse CD38): ≤ 0.04 µM

O=C(N[C@H]1CC[C@H](NCC(F)(F)F)CC1)c1nc(-c2cncs2)nn2cccc12 [Example 30, 2-(thiazol-5-yl)-N-((1r,4r)-4-((2,2,2-trifluoroethyl)amino)cyclohexyl)pyrrolo[2,1-f][1,2,4]triazine-4-carboxamide]
IC50 (Recombinant human CD38): ≤ 0.1 µM | IC50 (Recombinant mouse CD38): ≤ 0.04 µM

O=C(N[C@H]1C[C@H](NCC(F)(F)F)C1)c1nc(-n2ccnc2)nn2cccc12 [Example 11, 2-(1H-imidazol-1-yl)-N-((1r,3r)-3-((2,2,2-trifluoroethyl)amino)cyclobutyl)pyrrolo[2,1-f][1,2,4]triazine-4-carboxamide]
IC50 (Recombinant human CD38): ≤ 0.04 µM | IC50 (Recombinant mouse CD38): ≤ 0.04 µM

Cn1cncc1-c1nc(C(=O)N[C@H]2CC[C@H](NCC(F)(F)F)CC2)c2cccn2n1 [Example 17, 2-(1-methyl-1H-imidazol-5-yl)-N-((1r,4r)-4-((2,2,2-trifluoroethyl)amino)cyclohexyl)pyrrolo[2,1-f][1,2,4]triazine-4-carboxamide]
IC50 (Recombinant human CD38): ≤ 0.04 µM | IC50 (Recombinant mouse CD38): ≤ 0.04 µM

Cc1cncn1-c1nc(C(=O)N[C@H]2CC[C@H](NCC(F)(F)F)CC2)c2cccn2n1 [Example 42, 2-(5-methyl-1H-imidazol-1-yl)-N-((1r,4r)-4-((2,2,2-trifluoroethyl)amino)cyclohexyl)pyrrolo[2,1-f][1,2,4]triazine-4-carboxamide]
IC50 (Recombinant human CD38): ≤ 0.04 µM | IC50 (Recombinant mouse CD38): ≤ 0.04 µM

O=C(NC1CC2(CC(NCC(F)(F)F)C2)C1)c1nc(-n2ccnc2)nn2cccc12 (single isomer, unassigned) [Example 9, 2-(1H-imidazol-1-yl)-N-(6-((2,2,2-trifluoroethyl)amino)spiro[3.3]heptan-2-yl)pyrrolo[2,1-f][1,2,4]triazine-4-carboxamide]
IC50 (Recombinant human CD38): ≤ 0.04 µM | IC50 (Recombinant mouse CD38): ≤ 0.04 µM

O=C(N[C@H]1CC[C@H](N2CCS(=O)(=O)CC2)CC1)c1cn2ncnc2c(-n2ccnc2)n1 [Example 51, N-((1r,4r)-4-(1,1-dioxidothiomorpholino)cyclohexyl)-8-(1H-imidazol-1-yl)-[1,2,4]triazolo[1,5-a]pyrazine-6-carboxamide]
IC50 (Recombinant human CD38): ≤ 1 µM | IC50 (Recombinant mouse CD38): ≤ 0.04 µM

O=C(N[C@H]1CC[C@H](N2CC[C@H](F)C2)CC1)c1cn2ccnc2c(-n2ccnc2)n1 [Example 40, N-((1S,4r)-4-((S)-3-fluoropyrrolidin-1-yl)cyclohexyl)-8-(1H-imidazol-1-yl) imidazo[1,2-a]pyrazine-6-carboxamide]
IC50 (Recombinant human CD38): ≤ 1 µM | IC50 (Recombinant mouse CD38): ≤ 0.04 µM

O=C(N[C@H]1CC[C@H](N2CC[C@@H](F)C2)CC1)c1cn2cccc2c(-n2ccnc2)n1 [Example 24, N-((1R,4r)-4-((R)-3-fluoropyrrolidin-1-yl)cyclohexyl)-1-(1H-imidazol-1-yl)pyrrolo[1,2-a]pyrazine-3-carboxamide]
IC50 (Recombinant human CD38): ≤ 1 µM | IC50 (Recombinant mouse CD38): ≤ 0.04 µM

CN(CC(F)(F)F)[C@H]1CC[C@H](NC(=O)c2cn3ncnc3c(-n3ccnc3)n2)CC1 [Example 47, 8-(1H-imidazol-1-yl)-N-((1r,4r)-4-(methyl (2,2,2-trifluoroethyl)amino)cyclohexyl)-[1,2,4]triazolo[1,5-a]pyrazine-6-carboxamide]
IC50 (Recombinant human CD38): ≤ 0.1 µM | IC50 (Recombinant mouse CD38): ≤ 0.04 µM

O=C(N[C@H]1CC[C@H](N2CC[C@@H](F)C2)CC1)c1nc(-n2ccnc2)c2cccn2n1 [Example 28, N-((1R,4r)-4-((R)-3-fluoropyrrolidin-1-yl)cyclohexyl)-4-(1H-imidazol-1-yl)pyrrolo[2,1-f][1,2,4]triazine-2-carboxamide]
IC50 (Recombinant human CD38): ≤ 10 µM | IC50 (Recombinant mouse CD38): ≤ 0.04 µM

CO[C@@H]1CCN([C@H]2CC[C@@H](NC(=O)c3cn4ncnc4c(-n4ccnc4)n3)CC2)C1 [Example 54, 8-(1H-imidazol-1-yl)-N-((1S,4s)-4-((R)-3-methoxypyrrolidin-1-yl)cyclohexyl)-[1,2,4]triazolo[1,5-a]pyrazine-6-carboxamide]
IC50 (Recombinant human CD38): ≤ 1 µM | IC50 (Recombinant mouse CD38): ≤ 0.04 µM

O=C(N[C@H]1CC[C@H](NCC(F)F)CC1)c1cn2ncnc2c(-n2ccnc2)n1 [Example 52, N-((1r,4r)-4-((2,2-difluoroethyl)amino)cyclohexyl)-8-(1H-imidazol-1-yl)-[1,2,4]triazolo[1,5-a]pyrazine-6-carboxamide]
IC50 (Recombinant human CD38): ≤ 0.1 µM | IC50 (Recombinant mouse CD38): ≤ 0.04 µM

O=C(N[C@H]1CC[C@H](NCC(F)(F)F)CC1)c1cn2cccc2c(-n2ccnc2)n1 [Example 15, 1-(1H-imidazol-1-yl)-N-((1r,4r)-4-((2,2,2-trifluoroethyl)amino)cyclohexyl)pyrrolo[1,2-a]pyrazine-3-carboxamide]
IC50 (Recombinant human CD38): ≤ 0.04 µM | IC50 (Recombinant mouse CD38): ≤ 0.04 µM

O=C(N[C@H]1CC[C@H](NCC(F)(F)F)CC1)c1cc2cccnc2c(-c2cncs2)n1 [Example 7, 8-(thiazol-5-yl)-N-((1r,4r)-4-((2,2,2-trifluoroethyl)amino)cyclohexyl)-1,7-naphthyridine-6-carboxamide]
IC50 (Recombinant human CD38): ≤ 1 µM | IC50 (Recombinant mouse CD38): ≤ 0.04 µM

O=C(N[C@H]1CC[C@H](N2CC[C@H](O)C2)CC1)c1nc(-n2ccnc2)nn2cccc12 [Example 23, N-((1S,4r)-4-((S)-3-hydroxypyrrolidin-1-yl)cyclohexyl)-2-(1H-imidazol-1-yl)pyrrolo[2,1-f][1,2,4]triazine-4-carboxamide]
IC50 (Recombinant human CD38): ≤ 0.04 µM | IC50 (Recombinant mouse CD38): ≤ 0.04 µM
